The values that follow come from patent US10004701B2, “Methods and compositions for treating infection” (UNIVERSITY OF ROCHESTER, priority 2012, dated 2018).

Assay in all cases: AK assay 384-well format, Prestwick library screening
For assay [1], the system named is S. aureus strain USA300-0114. It is filed as cell-based, Staphylococcus aureus. Particulars: 50 μM final drug concentration; for fold induction at 50 µM: Staphylococcus aureus, USA300, 3 h.
The subject of a further assay is E. faecium. It is filed as cell-based, Enterococcus faecium. The settings on record: 50 μM final drug concentration; for fold induction at 50 µM: Enterococcus faecium, 3 h.
The next assay deals with K. pneumoniae. It is filed as cell-based, Klebsiella pneumoniae. The settings on record: 50 μM final drug concentration; for fold induction at 50 µM: Klebsiella pneumoniae, 3 h.
The test system of a further assay is P. aeruginosa. Type of assay: cell-based, Pseudomonas aeruginosa. Particulars: 50 μM final drug concentration; for fold induction at 50 µM: Pseudomonas aeruginosa, 3 h.
Another assay has as its system E. coli. It is filed as cell-based, Escherichia coli. Particulars: 50 μM final drug concentration; for fold induction at 50 µM: Escherichia coli, 3 h.
Assay [2] concerns A. baumannii strain 98-37-09. Type of assay: cell-based, Acinetobacter baumannii. Particulars: 50 μM final drug concentration; for fold induction at 50 µM: Acinetobacter baumannii, 983709, 3 h.
The next assay deals with E. cloacae. It is filed as cell-based, Enterobacter cloacae. The settings on record: 50 μM final drug concentration; for fold induction at 50 µM: Enterobacter cloacae, 3 h.
[3] abbreviates: planktonic, cutoff for positive-scoring molecules 3-fold increase.
Where [4] appears, read: planktonic, cutoff for positive-scoring molecules 3-fold increase, read-out: AK-based Prestwick Library Screening Results, S. aureus (fold increase in extracellular AK activity).
The mark [5] stands for this setting: planktonic, cutoff for positive-scoring molecules 3-fold increase, read-out: AK-based Prestwick Library Screening Results, E. faecium (fold increase in extracellular AK activity).
[6] abbreviates: planktonic, cutoff for positive-scoring molecules 3-fold increase, read-out: AK-based Prestwick Library Screening Results, K. pneumoniae (fold increase in extracellular AK activity).
The mark [7] stands for this setting: planktonic, cutoff for positive-scoring molecules 3-fold increase, read-out: AK-based Prestwick Library Screening Results, P. aeruginosa (fold increase in extracellular AK activity).
Where [8] appears, read: planktonic, cutoff for positive-scoring molecules 3-fold increase, read-out: AK-based Prestwick Library Screening Results, E. coli (fold increase in extracellular AK activity).
[9] abbreviates: planktonic, cutoff for positive-scoring molecules 3-fold increase, read-out: AK-based Prestwick Library Screening Results, A. baumannii (fold increase in extracellular AK activity).
The mark [10] stands for this setting: planktonic, cutoff for positive-scoring molecules 3-fold increase, read-out: AK-based Prestwick Library Screening Results, E. cloacae (fold increase in extracellular AK activity).

Structures can show the parent of a compound that is named as a salt. Where two headings read alike, the source gives them in different places.

In the case of `CC(C)n1c(/C=C/C(O)CC(O)CC(=O)O)c(-c2ccc(F)cc2)c2ccccc21` (stereo not shown) [Fluvastatin sodium salt], the fold induction at 50 µM in assay [1] (cutoff for positive-scoring molecules 3-fold increase, read-out: AK-based Prestwick Library Screening Results, S. aureus (fold increase in extracellular AK activity)) was 1; in the assay with E. faecium (cutoff for positive-scoring molecules 3-fold increase, read-out: AK-based Prestwick Library Screening Results, E. faecium (fold increase in extracellular AK activity)), 1; in the assay on K. pneumoniae (cutoff for positive-scoring molecules 3-fold increase, read-out: AK-based Prestwick Library Screening Results, K. pneumoniae (fold increase in extracellular AK activity)) it was 0.9; with P. aeruginosa (cutoff for positive-scoring molecules 3-fold increase, read-out: AK-based Prestwick Library Screening Results, P. aeruginosa (fold increase in extracellular AK activity)) it was 1; in the assay with E. coli (cutoff for positive-scoring molecules 3-fold increase, read-out: AK-based Prestwick Library Screening Results, E. coli (fold increase in extracellular AK activity)) it was 1.3; in assay [2] (cutoff for positive-scoring molecules 3-fold increase, read-out: AK-based Prestwick Library Screening Results, A. baumannii (fold increase in extracellular AK activity)), 0.9. The fold induction at 50 µM with E. cloacae (cutoff for positive-scoring molecules 3-fold increase, read-out: AK-based Prestwick Library Screening Results, E. cloacae (fold increase in extracellular AK activity)) worked out at 1.7.

As for `COCCCC/C(=N\OCCN)c1ccc(C(F)(F)F)cc1` [Fluvoxamine maleate], the fold induction at 50 µM in assay [1] (planktonic S. aureus, positive cutoff 3-fold increase, read-out: AK-based Prestwick library screening result, S. aureus (fold increase in extracellular AK activity)) is 0.7; in the assay on E. faecium (planktonic E. faecium, positive cutoff 3-fold increase, read-out: AK-based Prestwick library screening result, E. faecium (fold increase in extracellular AK activity)), 0.8; in the assay with K. pneumoniae (planktonic K. pneumoniae, positive cutoff 3-fold increase, read-out: AK-based Prestwick library screening result, K. pneumoniae (fold increase in extracellular AK activity)) it was 0.7; in the assay on P. aeruginosa (planktonic P. aeruginosa, positive cutoff 3-fold increase, read-out: AK-based Prestwick library screening result, P. aeruginosa (fold increase in extracellular AK activity)), 0.8; with E. coli (planktonic E. coli, positive cutoff 3-fold increase, read-out: AK-based Prestwick library screening result, E. coli (fold increase in extracellular AK activity)), 0.9; in assay [2] (planktonic A. baumannii, positive cutoff 3-fold increase, read-out: AK-based Prestwick library screening result, A. baumannii (fold increase in extracellular AK activity)), 0.9. The fold induction at 50 µM in the assay with E. cloacae (planktonic E. cloacae, positive cutoff 3-fold increase, read-out: AK-based Prestwick library screening result, E. cloacae (fold increase in extracellular AK activity)) is 1.1.

With `Nc1nc2ncc(CNc3ccc(C(=O)N[C@@H](CCC(=O)O)C(=O)O)cc3)nc2c(=O)[nH]1` [Folic acid], the fold induction at 50 µM turned out to be 1 in assay [1] (planktonic, cutoff for positive 3-fold increase, read-out: AK-based Prestwick Library Screening Results, S. aureus (fold increase in extracellular AK activity)); 1.1 in the assay with E. faecium (planktonic, cutoff for positive 3-fold increase, read-out: AK-based Prestwick Library Screening Results, E. faecium (fold increase in extracellular AK activity)); 1 in the assay with K. pneumoniae (planktonic, cutoff for positive 3-fold increase, read-out: AK-based Prestwick Library Screening Results, K. pneumoniae (fold increase in extracellular AK activity)); 1.1 in the assay on P. aeruginosa (planktonic, cutoff for positive 3-fold increase, read-out: AK-based Prestwick Library Screening Results, P. aeruginosa (fold increase in extracellular AK activity)); 1.3 in the assay on E. coli (planktonic, cutoff for positive 3-fold increase, read-out: AK-based Prestwick Library Screening Results, E. coli (fold increase in extracellular AK activity)); 1.3 in assay [2] (planktonic, cutoff for positive 3-fold increase, read-out: AK-based Prestwick Library Screening Results, A. baumannii (fold increase in extracellular AK activity)). Moreover, the fold induction at 50 µM in the assay with E. cloacae (planktonic, cutoff for positive 3-fold increase, read-out: AK-based Prestwick Library Screening Results, E. cloacae (fold increase in extracellular AK activity)) is 1.3.

For the compound `Nc1nc(=O)c2c([nH]1)NCC(CNc1ccc(C(=O)N[C@@H](CCC(=O)[O-])C(=O)[O-])cc1)N2C=O.[Ca+2]` (stereo partly shown) [Folinic acid calcium salt], the “AK-based Prestwick Library Screening Results, S. aureus (fold increase in extracellular AK activity)” value in assay [1] (setting [3]) is listed as 0.7. In addition, the “AK-based Prestwick Library Screening Results, E. faecium (fold increase in extracellular AK activity)” value with E. faecium (setting [3]) stood at 1.0. The “AK-based Prestwick Library Screening Results, K. pneumoniae (fold increase in extracellular AK activity)” value in the assay on K. pneumoniae (setting [3]) came out at 0.6. In addition, the “AK-based Prestwick Library Screening Results, P. aeruginosa (fold increase in extracellular AK activity)” value with P. aeruginosa (setting [3]) is given as 0.6. In the assay with E. coli (setting [3]), the “AK-based Prestwick Library Screening Results, E. coli (fold increase in extracellular AK activity)” value was found to be 0.7. In addition, the “AK-based Prestwick Library Screening Results, A. baumannii (fold increase in extracellular AK activity)” value in assay [2] (setting [3]) is recorded as 0.7. The “AK-based Prestwick Library Screening Results, E. cloacae (fold increase in extracellular AK activity)” value in the assay on E. cloacae (setting [3]) worked out at 0.7.

As to `O=C(O)c1ccccc1OP(=O)(O)O` [Fosfosal], the fold induction at 50 µM in assay [1] (setting [4]) came out at 0.7; in the assay on E. faecium (setting [5]) it was 0.9; in the assay with K. pneumoniae (setting [6]), 0.6; in the assay with P. aeruginosa (setting [7]) it was 0.7; with E. coli (setting [8]), 0.7; in assay [2] (setting [9]), 0.8. Further, the fold induction at 50 µM in the assay on E. cloacae (setting [10]) stood at 0.8.

In the case of `O=C1OC(CN2CCOCC2)CN1/N=C/c1ccc([N+](=O)[O-])o1` (stereo not shown) [Furaltadone hydrochloride], the fold induction at 50 µM in assay [1] (setting [4]) was determined as 0.7; in the assay with E. faecium (setting [5]) it was 1.1; in the assay on K. pneumoniae (setting [6]), 2.6; in the assay on P. aeruginosa (setting [7]), 1.1; in the assay on E. coli (setting [8]) it was 0.9; in assay [2] (setting [9]), 1. In addition, in the assay on E. cloacae (setting [10]), the fold induction at 50 µM was found to be 1.7.

For the compound `O=C1OCCN1/N=C/c1ccc([N+](=O)[O-])o1` [Furazolidone], the fold induction at 50 µM is 0.8 in assay [1] (setting [4]); 0.9 in the assay on E. faecium (setting [5]); 3.2 in the assay on K. pneumoniae (setting [6]); 0.6 in the assay with P. aeruginosa (setting [7]); 0.8 with E. coli (setting [8]); 0.4 in assay [2] (setting [9]). The fold induction at 50 µM with E. cloacae (setting [10]) was 0.6.
